This is an account of results in patent publication US12036312B2, “Non-aqueous topical compositions comprising a halogenated salicylanilide” (priority 2016, dated 2024).

One data set relates to P. acnes. Nature of the data set: MIC by agar dilution, Propionibacterium acnes. The conditions noted are these: Cutibacterium acnes. In kind it is cell-based. As to the method: The strains of P. acnes used were CSS3288, CSS 3023, 998, and 1044 obtained from Luc Dubreuil. P. acnes strains are grown on Brucella blood agar with hemin and vitamin K [1], plates are incubated 48 to 72 hours at 35-37° C. under anaerobic conditions. Brucella blood agar with hemin and vitamin K was prepared as follows: sterile Brucella agar with hemin and vitamin K was tempered to 50-54° C. and the medium was supplemented with 5% lacked horse blood and poured in Petri dishes. Broth cultures are performed in Wilkins-Chalgren broth. All cultures are done under anaerobic conditions in an anaerobic chamber. Agar media was inoculated for single-colony isolation using sterile disposable loops. The MICs of the antibacterial agents was determined by agar dilution. […] Brucella Blood Agar with hemin and vitamin K plates containing series of two-fold dilutions of antibacterial agents were prepared. The base agar was prepared and tempered to 50-54° C. Then the blood supplement and the antibiotics were added and the 7 ml were aseptically poured into six-well culture plates. Once the agar had solidified it was transferred into the anaerobe chamber for 24 hours before use to allow for pre-reduction. Twenty-five microliters of P. acnes culture containing 10^6 CFU of were spotted in each well. The plates were incubated anaerobically for 72 hours at 35-37° C. The MIC is the lowest concentration that inhibits growth of P. acnes.

Data set [1] deals with methicillin-resistant Staphylococcus aureus (MRSA 01, MRSA 15, MRSA 16). Nature of the data set: Resistance mutation frequency evaluation, Example 3. It is filed as cell-based.
The subject of data set [2] is MRSA 01, MRSA 15 (fusidic acid-resistant), MRSA 16 (mupirocin-resistant). The data set can be described thus: Mutational frequency evaluation (spontaneous single-step mutations), Example 1. The conditions noted are these: at MIC×1 (Example 1). In kind it is cell-based, Staphylococcus aureus.
For the next data set, the system named is S. aureus. The data set can be described thus: Minimum inhibitory concentration (MIC) assay, Example 1, S. aureus strains. It is filed as cell-based. The conditions noted are these: Staphylococcus aureus. From the text:
The methicillin-resistant S. aureus (MRSA) 01 strain was used as the primary test microorganism as a representative bacteria commonly found in skin infections. This strain is a community-acquired MRSA clinical isolate of USA 300 type, from a skin abscess.
(§1) Twenty-one other MRSA and methicillin-sensitive S. aureus strains, and 4 Streptococcus pyogenes strains, were also included in the study (Table 2). These covered fusidic acid- and mupirocin-resistant strains, these two types of resistance being of clinical relevance.
(§2) Strains were conserved in Luria Bertani (LB) Broth (S. aureus) or Brain Heart Infusion (BHI) (S. pyogenes) supplemented with glycerol 15% (v/v) at −80° C., and reactivated by isolation on LB (S. aureus) or BHI (S. pyogenes) agar plates. Strains were cultivated in Mueller Hinton (MH) Broth-cation adjusted (S. aureus) supplemented with lysed horse blood 2.5% (v/v) (S. pyogenes). All strains were cultivated at 37° C., aerobically for S. aureus strains.
(§3) Bacterial cultures were stopped in their exponential growth phase and plates were inoculated with the approximate concentration of 10^3 cells per well. Plates were incubated at 37° C. for 18 hours (S. aureus) or 24 hours (S. pyogenes). Optical density at a wavelength of 600 nm was measured at the end of the incubation time. […] Experiments were performed at least as triplicate biological replicates with all strains.

For data set [3] the following is noted: published literature values; cited from earlier work.
The subject of data set [4] is S. pyogenes. The data set can be described thus: MIC assay, Example 2, S. pyogenes strains (in BHI). In kind it is cell-based, Streptococcus pyogenes. The conditions noted are these: 4 strains. As to the method:
Two-hundred-four other MRSA and methicillin-sensitive S. aureus strains, and 4 Streptococcus pyogenes strains, were also included in the study. These covered fusidic acid- and mupirocin-resistant strains, these two types of resistance being of clinical relevance.
Strains were conserved in Luria Bertani (LB) Broth (S. aureus) or Brain Heart Infusion (BHI) (S. pyogenes) supplemented with glycerol 15% (v/v) at −80° C., and reactivated by isolation on LB (S. aureus) or BHI (S. pyogenes) agar plates. Strains were cultivated in Mueller Hinton (MH) Broth-cation adjusted (S. aureus) or BHI (S. pyogenes). All strains were cultivated aerobically (microaerobically for S. pyogenes strains) at 37° C.
Bacterial cultures were stopped in their exponential growth phase and plates were inoculated with the approximate concentration of 5×10^5 cells per well. Plates were incubated at 37° C. for 18 hours (S. aureus) or 24 hours (S. pyogenes). Optical density at a wavelength of 600 nm was measured at the end of the incubation time.

Data set [5] has as its system S. pyogenes. Nature of the data set: Minimum inhibitory concentration (MIC) assay, Example 1, S. pyogenes strains. It is filed as cell-based. The conditions noted are these: Streptococcus pyogenes, read-out: MIC. On the procedure:
as §1, §2, §3

In the next data set the test system is MRSA 01. Nature of the data set: Time-kill assay. In kind it is cell-based, Staphylococcus aureus. The conditions noted are these: initial inoculum 7 log10 cfu/ml, niclosamide 4 μg/ml [MIC×10]. As to the method:
This assay was performed in 20 ml of medium. It included a negative control (medium without bacteria), a positive control (bacteria grown without niclosamide) and the assay (bacteria grown with niclosamide). […] This experiment was performed with the primary test microorganism indicated above.
The overnight culture was stopped and OD600 was measured. Culture was then diluted in indicated medium to obtain an OD600 of 0.25 in order to have about 5×10^8 cfu/ml. Two hundred μl of this diluted culture were then added in all conditions except in the negative control. Initial bacterial concentration was about 5×10^6 cfu/ml. Tubes were incubated aerobically at 37° C. for 24 hours.
Bacteria were enumerated before the incubation, after 30 minutes, 1, 2, 4, 8 and 24 hours of incubation by serial dilutions in NaCl 0.9% and plating on LB agar, with 2 plates per dilution. Plates were incubated at 37° C. and colonies enumerated after 24 hours.

[6] abbreviates: P. acnes, agar dilution, anaerobic, 72 hours, read-out: MIC.

≈ marks a conversion by molar mass, not a printed value. Where two headings read alike, the source gives them in different places. Bounds are passed on as bounds.

For `C=C[C@]1(C)C[C@@H](OC(=O)CS[C@@H]2C[C@H]3CC[C@@H](C2)N3C)[C@]2(C)[C@H](C)CC[C@]3(CCC(=O)[C@H]32)[C@@H](C)[C@@H]1O` [Retapamulin, retapamulin], in the data set with P. acnes (72 h), the MIC stood at 0.016 µg/mL (≈ 0.0309 µM).
Turning to `CC(=O)O[C@H]1C[C@@]2(C)[C@@H](C[C@@H](O)[C@H]3[C@@]4(C)CC[C@@H](O)[C@@H](C)[C@@H]4CC[C@@]32C)/C1=C(\CCC=C(C)C)C(=O)O` [Fusidic acid, fusidic acid], the mutational frequency is ≥ 4.10^−5 in data set [1] (at MIC×1) and 3.10^−7 in data set [1] (at MIC×10). In addition, in the data set on P. acnes (setting [6]), the MIC amounted to 4 µg/mL (≈ 7.74 µM).
Consider `O=C(Nc1ccc([N+](=O)[O-])cc1Cl)c1cc(Cl)ccc1O` [Niclosamide, niclosamide], for which the mutational frequency is given as < 4×10^−10 in data set [2] and < 4.10^−9 in data set [1] (at MIC×1, all tested strains (MRSA 01, MRSA 15, MRSA 16), below the detection limit). Also, the MIC was at most 0.4 µg/mL with S. aureus (MRSA, * tested against one strain: MRSA 01, read-out: Mic100 S. aureus); 0.4 µg/mL (≈ 1.22 µM) with S. aureus (MRSA, strain MRSA 01, read-out: MIC); 0.2 µg/mL (≈ 0.611 µM) in the data set on S. aureus (MRSA, strain MRSA 02, read-out: MIC); 0.4 µg/mL (≈ 1.22 µM) with S. aureus (MRSA, strain MRSA 03*, read-out: MIC); 0.4 µg/mL (≈ 1.22 µM) with S. aureus (MRSA, strain MRSA 04, read-out: MIC); 0.2 µg/mL (≈ 0.611 µM) in the data set with S. aureus (MRSA, strain MRSA 05, read-out: MIC). Besides, the MIC with S. aureus (MRSA, strain MRSA 06, read-out: MIC) was found to be 0.4 µg/mL (≈ 1.22 µM); in the data set on S. aureus (MRSA, strain MRSA 07, read-out: MIC), 0.2 µg/mL (≈ 0.611 µM); in the data set on S. aureus (MRSA, strain MRSA 08*, read-out: MIC) it was 0.4 µg/mL (≈ 1.22 µM); in the data set on S. aureus (MRSA, strain MRSA 09, read-out: MIC), 0.2 µg/mL (≈ 0.611 µM); in the data set on S. aureus (MRSA, strain MRSA 10, read-out: MIC), 0.4 µg/mL (≈ 1.22 µM); in the data set with S. aureus (MRSA, strain MRSA 11, read-out: MIC) it was 0.1 µg/mL (≈ 0.306 µM). The MIC is 0.4 µg/mL (≈ 1.22 µM) with S. aureus (MRSA, strain MRSA 12*, read-out: MIC); 0.4 µg/mL (≈ 1.22 µM) in the data set with S. aureus (MRSA, strain MRSA 13*, read-out: MIC); 0.4 µg/mL (≈ 1.22 µM) in the data set on S. aureus (MRSA, strain MRSA 14*, read-out: MIC); 0.2 µg/mL (≈ 0.611 µM) in the data set on S. aureus (MRSA, strain MRSA 15*, read-out: MIC); 0.2 µg/mL (≈ 0.611 µM) in the data set with S. aureus (MRSA, strain MRSA 16*, read-out: MIC); 0.2 µg/mL (≈ 0.611 µM) in the data set with S. aureus (MRSA, strain MRSA 17*, read-out: MIC). For the same compound, the MIC was found to be 0.4 µg/mL (≈ 1.22 µM) with S. aureus (MSSA, strain MSSA 01*, read-out: MIC); 0.4 µg/mL (≈ 1.22 µM) in the data set on S. aureus (MSSA, strain MSSA 02*, read-out: MIC); 0.2 µg/mL (≈ 0.611 µM) in the data set with S. aureus (NEWMAN, strain Newman, read-out: MIC); 0.4 µg/mL (≈ 1.22 µM) in the data set with S. aureus (strain EEFIC 01*, read-out: MIC); 0.2 µg/mL (≈ 0.611 µM) with S. aureus (strain EEFIC 02*, read-out: MIC); 0.5 µg/mL (≈ 1.53 µM) in the data set with P. acnes (setting [6]). For the same compound, the MIC with S. pyogenes [5] (ATCC12385, S. pyogenes strain ATCC 12385) was found to be 1.6 µg/mL (≈ 4.89 µM); in the data set on S. pyogenes [5] (ATCC19615, S. pyogenes strain ATCC 19615), 3.2 µg/mL (≈ 9.78 µM); with S. pyogenes [5] (CCUG25571, S. pyogenes strain CCUG 25571), 3.2 µg/mL (≈ 9.78 µM); in the data set with S. pyogenes [5] (S. pyogenes strain 01), 3.2 µg/mL (≈ 9.78 µM). The LD50 mice p.o in data set [3] was above 1500 mg/kg. In addition, the “MIC distribution: percentage of Streptococcus pyogenes strains” value is reported as 25% against S. pyogenes [4] (MIC 0.0625 μg/ml), 25% (1/4) in the data set with S. pyogenes [4] (MIC 0.5 μg/ml) and 25% (1/4) with S. pyogenes [4] (MIC […]). Moreover, the “bactericidal or bacteriostatic effect” value with MRSA 01 is given as “bacteriostatic effect”.
